Read-outs that look alike come from different tables or passages of the source.
Legend:
NHBANm = NHBANm (Neisseria meningitidis serogroup B, UniProt Q7DD37); conditions: cited from earlier work
NHBANg = NHBANg (Neisseria gonorrhoeae, UniProt B4RQT3); experiment: SPR analysis of glycan binding; conditions: for SPR binding, in words: glycans 100 μM to 1 nM
Method: Surface plasmon resonance (SPR) was performed using a BIAcore T200 instrument with recombinant NHBANg (100 μg/ml) immobilized on flow cells 2-4 by amine coupling on series S CMS sensor chips (GE Healthcare) as described previously. Flow cell 1 was used as the reference cell and immobilized with ethanolamine only. Single cycle kinetics was used to calculate the affinity (KD) of interactions with glycans run in 1:5 dilution series at concentrations between 100 μM to 1 nM. Results were analysed using BIAcore T200 software 2.0.2.

[1] = test system: N. gonorrhoeae 1291 ΔNHBA; experiment: Normal human serum survival assay; format: cell-based, Neisseria gonorrhoeae; conditions: ΔNHBA mutant; 10% normal human serum, 60 minutes; 6 μM heparin pre-incubation
Method: Resistance of N. gonorrhoeae to serum-mediated killing was tested as described previously with ˜10^4 CFU incubated in 10% (v/v) for 60 minutes at 37° C. and subsequently plated on GC agar. Bacteria were pre-incubated with 6 μM heparin 30 minutes where indicated. Bacterial survival was calculated as percent CFU (average from three replicate wells) relative to no treatment control.

[2] = test system: NHBA-heparin interactions; experiment: SPR competition assay, blocking of NHBA-heparin interactions by sera; format: binding, Neisseria gonorrhoeae; conditions: 1:200 dilution of serum; heparin max 50 μM
Method: SPR competition assays were performed using a Pall Pioneer FE. Competition assays were performed as previously described using NextStep injections in the OneStep assay builder. Pre- and post-immune NHBA mouse sera were used as the first injection (A), and heparin as the second injection (B). Binding of heparin (maximum OneStep concentration of 50 μM) to NHBA was compared with and without serum, and with 1:200 dilution of pre- or post-immune serum. Data was collected using the Pioneer Software package and analyzed using Qdat analysis software. The percentage blocking was calculated based on the relative RMax of the heparin injection without serum (Injection A=buffer; B=heparin) versus the serum subtracted (Injection A=pre/postimmune serum; B=buffer) binding of heparin in the presence of serum ((Injection A=pre/postimmune serum; B=heparin).

[3] = test system: N. gonorrhoeae adherence to cervical (tCX) epithelial cells; experiment: Blocking of gonococcal adherence by sera, cervical epithelial cells; format: cell-based, Neisseria gonorrhoeae
Method: (§1) Gonococcal adherence assays were performed as described previously with following modifications. Briefly, tCX and tUEC cell monolayers were infected (10 min at 37° C.) with approximately 1×10^5 CFU that was initially pre-incubated with serial dilutions of heat-inactivated mouse sera for 30 min at room temperature. Following the infection, cell monolayers were washed three times with warm HBSS to remove non-adherent bacteria and well contents plated onto GC agar. Results were calculated as the mean CFU from three replicate wells and presented as percentage of adherent bacteria relative to no antibody control. Statistical analysis performed with ANOVA and two-tailed Student's t-test. Each experiment was performed three times.

[4] = test system: N. gonorrhoeae adherence to urethral (tUEC) epithelial cells; experiment: Blocking of gonococcal adherence by sera, urethral epithelial cells; format: cell-based, Neisseria gonorrhoeae
Method: as §1

[5] = single cycle kinetics, immobilised NHBANg, read-out: KD

Q: With `O=C[C@H](O)[C@@H](O)[C@H](O)[C@H](O)COP(=O)(O)O` [β-Glc6P, glucose 6-phosphate] as the molecule, how does the Kd (NHBANm) read?
A: 56 nM

Q: For “chondroitin 4-sulfate [chondroitin sulfate A]”, which “SPR binding, in words” value (NHBANg) is on record?
A: no concentration dependent binding

Q: For `CC(=O)N[C@H]1[C@H](O[C@H]2[C@@H](O)[C@@H](CO)O[C@@H](O[C@H]3[C@H](O)[C@@H](O)C(O)O[C@@H]3CO)[C@@H]2O)O[C@H](CO)[C@@H](O[C@@H]2O[C@H](CO[C@]3(C(=O)O)C[C@H](O)[C@@H](NC(C)=O)[C@H]([C@H](O)[C@H](O)CO)O3)[C@H](O)[C@H](O)[C@H]2O)[C@@H]1O` (stereo partly drawn) [LSTc], which Kd (NHBANg) is on record?
A: 240 nM

Q: With `CC(=O)N[C@H]1[C@H](O[C@H]2[C@@H](O)[C@@H](CO)O[C@@H](O[C@H]3[C@H](O)[C@@H](O)C(O)O[C@@H]3CO)[C@@H]2O)O[C@H](CO)[C@@H](O[C@@H]2O[C@H](CO)[C@H](O)[C@H](O)[C@H]2O)[C@@H]1O` (stereo partly drawn) [LNnT, lacto N-neotetraose] as the molecule, how does the Kd (NHBANg) read?
A: 4890 nM

Q: For `CC(=O)N[C@H]1C(O)O[C@H](CO)[C@@H](O[C@@H]2O[C@H](CO)[C@H](O)[C@H](O)[C@H]2O)[C@@H]1O[C@@H]1O[C@@H](C)[C@@H](O)[C@@H](O)[C@@H]1O` (stereo partly drawn) [Lewis X], which “fold greater affinity than for sialyl Lewis X” value (NHBANg; ratio of KD) is on record?
A: 5 fold

Q: What about the Kd (NHBANg; [5]) of the same molecule?
A: 680 nM

Q: With hyaluronan as the molecule, how does the “SPR binding, in words” value (NHBANg) read?
A: No concentration dependent binding

Q: For heparan sulfate, which Kd (NHBANg; [5]) is on record?
A: 2790 nM

Q: With `C[C@@H]1O[C@@H](O[C@@H]2[C@@H](O)[C@@H](O)[C@@H](CO)O[C@H]2O)[C@@H](O)[C@H](O)[C@@H]1O` [H-disaccharide] as the molecule, how does the “SPR binding, in words” value (NHBANg) read?
A: No concentration dependent binding

Q: What does the source list for heparin?
A: Kd (NHBANg; [5]): 4.4 nM; survival in human serum after pre-treatment, in words [1]: increased survival

Q: For “dermatan sulfate [chondroitin sulfate B]”, which “SPR binding, in words” value (NHBANg) is on record?
A: no concentration dependent binding

Q: Which Kd (NHBANg; [5]) does the source give for chondroitin sulfate here?
A: 73 nM

Q: Which Kd (NHBANg; single cycle kinetics, immobilised NHBANg) does the source give for `CC(=O)N[C@H]1[C@H]([C@H](O)[C@H](O)CO)O[C@@](O[C@H]2[C@@H](O)[C@@H](CO)O[C@@H](O[C@H]3[C@H](O[C@@H]4O[C@@H](C)[C@@H](O)[C@@H](O)[C@@H]4O)[C@@H](NC(C)=O)C(O)O[C@@H]3CO)[C@@H]2O)(C(=O)O)C[C@@H]1O` (stereo partly drawn) [sialyl Lewis X] here?
A: 3650 nM

Q: For “chondroitin 6-sulfate [chondroitin sulfate C]”, which “SPR binding, in words” value (NHBANg) is on record?
A: bound

Q: For `CC(=O)N[C@H]1[C@H](O[C@H]2[C@@H](O)[C@@H](CO)O[C@@H](O[C@H]3[C@H](O)[C@@H](O)C(O)O[C@@H]3CO)[C@@H]2O)O[C@H](CO[C@]2(C(=O)O)C[C@H](O)[C@@H](NC(C)=O)[C@H]([C@H](O)[C@H](O)CO)O2)[C@@H](O)[C@@H]1O[C@@H]1O[C@H](CO)[C@H](O)[C@H](O)[C@H]1O` (stereo partly drawn) [LSTb], which Kd (NHBANg) is on record?
A: 2260 nM

B1: NHBA-c: C-terminal fragment of NHBA of N. gonorrhoeae 1291 (SEQ ID NO:2, 183 amino acids); antisera to it, adjuvant not stated at place (protein)
chain: SLPAEIPLIPVNQADTLIVDGEAVSLTGHSGNIFAPEGNYRYLTYGAEKLPGGSYALRVQGEPAKGEMLAGTAVYNGEVLHFHMENGRPYPSGGRFAAKVDFGSKSVDGIIDSSDDLHMGTQKFKAAIDGNGFKGTWTENGGGDVSGRFYGPAGEEVAGKYSYRPTDAEKGGFGVFAGKKDRD
modifications: Neisseria gonorrhoeae (strain 1291)
Q: With B1 as the molecule, how does the “reduction of heparin binding to NHBA” value [2] read?
A: 11%

Q: And the “adherence of serum-treated gonococci, in words” value ([3]; cervical epithelial cells, all tested concentrations, relative to untreated control)?
A: significantly reduced adherence

Q: What about the “decrease of gonococcal adherence” value ([3]; tCX cells, 1:20 dilution of sera, relative to no antibody control) of the same molecule?
A: 8 fold

Q: And the “decrease of gonococcal adherence” value ([4]; tUEC cells, 1:20 dilution of sera, relative to no antibody control)?
A: 5 fold

Q: What about the “adherence of serum-treated gonococci, in words” value ([4]; urethral epithelial cells, all tested concentrations, relative to untreated control) of the same molecule?
A: significantly reduced adherence

Source: patent US12479892B2, “Immunogenic protein against gonococcal infection” (priority 2019, dated 2025)
